The target in assay [1] is Dual specificity protein kinase CLK1 (Homo sapiens, UniProt P49759). Description: Affinity On-target Cellular interaction: (NanoBRET assay (HEK293T cells)) EUB0001049a CLK1. The format is cell-based, HEK-293T. Details: mode of action Negative control for SGC-CLK-1 (UNC-CAF-170 ), recommended concentration 1 uM. Background: In BRET a luciferase serves as donor, and the signal depends on an acceptor being close.

For assay [2], the target named is Dual specificity protein kinase CLK2 (Homo sapiens, UniProt P49760). Description: Affinity On-target Cellular interaction: (NanoBRET assay (HEK293T cells)) EUB0001049a CLK2. The format is cell-based, HEK-293T. Details: mode of action Negative control for SGC-CLK-1 (UNC-CAF-170 ), recommended concentration 1 uM.
Assay [3] has as its target Cyclin-G-associated kinase (Homo sapiens, UniProt O14976). As to the kind of experiment: Affinity On-target Cellular interaction: (NanoBRET assay (HEK293T cells)) EUB0000229b GAK. The format is cell-based, HEK-293T. Details: mode of action Negative control for SGC-GAK-1, recommended concentration 1 uM.
Assay [4] concerns the target Cyclin-dependent kinase 7 (Homo sapiens, UniProt P50613). As to the kind of experiment: Affinity On-target Cellular interaction: (Radioactive in vitro kinase assays (from cellular wild-type CDK7 immunoprecipitated in HeLa cells)) EUB0001635a CDK7. The format is cell-based. Details: mode of action Covalent inhibitor, recommended concentration 1 uM.
In assay [5] the target is Serine/threonine-protein kinase SIK3 (Homo sapiens, UniProt Q9Y2K2). Description: Affinity On-target Cellular interaction: (NanoBRET assay (HEK293T cells)) EUB0001479a SIK3. The format is cell-based, HEK-293T. The arrangement: mode of action Negative control for MRIA9, recommended concentration 1 uM.
In assay [6] the target is Serine/threonine-protein kinase SIK1 (Homo sapiens, UniProt P57059). Description: Affinity On-target Cellular interaction: (NanoBRET assay (HEK293T cells)) EUB0001479a SIK1. Details: mode of action Negative control for MRIA9, recommended concentration 1 uM. The format is cell-based, HEK-293T.
Chain of Serine/threonine-protein kinase SIK1 (P57059 whole entry): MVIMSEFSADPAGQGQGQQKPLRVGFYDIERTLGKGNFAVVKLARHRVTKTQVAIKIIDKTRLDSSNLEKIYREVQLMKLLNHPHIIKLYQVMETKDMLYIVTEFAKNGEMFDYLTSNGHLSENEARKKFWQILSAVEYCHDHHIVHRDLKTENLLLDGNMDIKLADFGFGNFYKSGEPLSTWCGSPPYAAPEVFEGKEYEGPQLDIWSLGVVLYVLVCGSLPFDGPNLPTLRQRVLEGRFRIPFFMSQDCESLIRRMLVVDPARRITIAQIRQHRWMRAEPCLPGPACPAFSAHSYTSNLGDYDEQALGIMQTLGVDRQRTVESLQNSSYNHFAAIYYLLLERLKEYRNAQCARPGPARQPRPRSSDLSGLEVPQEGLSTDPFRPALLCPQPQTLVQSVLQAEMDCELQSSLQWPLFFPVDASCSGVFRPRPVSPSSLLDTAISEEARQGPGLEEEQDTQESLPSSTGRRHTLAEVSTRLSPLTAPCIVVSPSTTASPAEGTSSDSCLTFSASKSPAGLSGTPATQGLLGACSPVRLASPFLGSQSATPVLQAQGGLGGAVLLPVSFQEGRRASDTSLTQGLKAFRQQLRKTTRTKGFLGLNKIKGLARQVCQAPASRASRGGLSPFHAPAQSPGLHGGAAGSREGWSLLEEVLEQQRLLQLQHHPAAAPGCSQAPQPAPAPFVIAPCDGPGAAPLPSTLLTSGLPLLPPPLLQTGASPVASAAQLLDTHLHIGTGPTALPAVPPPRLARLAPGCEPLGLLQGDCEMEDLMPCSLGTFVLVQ
The target in assay [7] is Serine/threonine-protein kinase SIK2 (Homo sapiens, UniProt Q9H0K1). Description: Affinity On-target Cellular interaction: (NanoBRET assay (HEK293T cells)) EUB0001479a SIK2. The format is cell-based, HEK-293T. The arrangement: mode of action Negative control for MRIA9, recommended concentration 1 uM.
Assay [8] addresses Serine/threonine-protein kinase 17A (Homo sapiens, UniProt Q9UEE5).
Assay [9] concerns the target Dual specificity protein kinase CLK4 (Homo sapiens, UniProt Q9HAZ1). Description: Affinity On-target Cellular interaction: (NanoBRET assay (in HEK293T cells)) EUB0000008b CLK4. Details: mode of action Inhibitor, recommended concentration 1 uM. The format is cell-based, HEK-293T.
In assay [10] the target is Dual specificity tyrosine-phosphorylation-regulated kinase 2 (Homo sapiens, UniProt Q92630). As to the kind of experiment: Affinity On-target Cellular interaction: (NanoBRET assay (in HEK293T cells)) EUB0000008b DYRK2. The format is cell-based, HEK-293T. Details: mode of action Inhibitor, recommended concentration 1 uM.
Assay [11] has as its target Dual specificity tyrosine-phosphorylation-regulated kinase 1A (Homo sapiens, UniProt Q13627). Description: Affinity On-target Cellular interaction: (NanoBRET assay (in HEK293T cells)) EUB0000008b DYRK1A. The format is cell-based, HEK-293T. The arrangement: mode of action Inhibitor, recommended concentration 1 uM.
Assay [12] addresses Chromatin remodeling regulator CECR2 (Homo sapiens, UniProt Q9BXF3). As to the kind of experiment: Affinity On-target Cellular interaction: (NanoBRET assay (NL-FL […] in HEK293 cells)) EUB0000233b CECR2. The format is cell-based. Details: mode of action Inhibitor, recommended concentration 1 uM.
Assay [13] concerns the target Nucleosome-remodeling factor subunit BPTF (Homo sapiens, UniProt Q12830). Description: Affinity On-target Cellular interaction: (NanoBRET assay (NL-BPTF BD in HEK293 cells)) EUB0000233b BPTF. The format is cell-based. The arrangement: mode of action Inhibitor, recommended concentration 1 uM.
Assay [14] addresses SRSF protein kinase 2 (Homo sapiens, UniProt P78362).
Assay [15] has as its target SRSF protein kinase 1 (Homo sapiens, UniProt Q96SB4).
Assay [16] addresses T1, Casein kinase I isoform delta (Homo sapiens, UniProt P48730). As to the kind of experiment: Affinity On-target Cellular interaction: (NanoBRET asssay (HEK293T cells)) EUB0001201a CSNK1D. The format is cell-based, HEK-293T. The arrangement: mode of action Negative control for MU1742, recommended concentration 1 uM.
Assay [17] deals with T2, Casein kinase I isoform epsilon (Homo sapiens, UniProt P49674). Description: Affinity On-target Cellular interaction: (NanoBRET asssay (HEK293T cells)) EUB0001201a CSNK1E. The arrangement: mode of action Negative control for MU1742, recommended concentration 1 uM. The format is cell-based, HEK-293T.
T2 sequence (P49674 whole entry, canonical isoform): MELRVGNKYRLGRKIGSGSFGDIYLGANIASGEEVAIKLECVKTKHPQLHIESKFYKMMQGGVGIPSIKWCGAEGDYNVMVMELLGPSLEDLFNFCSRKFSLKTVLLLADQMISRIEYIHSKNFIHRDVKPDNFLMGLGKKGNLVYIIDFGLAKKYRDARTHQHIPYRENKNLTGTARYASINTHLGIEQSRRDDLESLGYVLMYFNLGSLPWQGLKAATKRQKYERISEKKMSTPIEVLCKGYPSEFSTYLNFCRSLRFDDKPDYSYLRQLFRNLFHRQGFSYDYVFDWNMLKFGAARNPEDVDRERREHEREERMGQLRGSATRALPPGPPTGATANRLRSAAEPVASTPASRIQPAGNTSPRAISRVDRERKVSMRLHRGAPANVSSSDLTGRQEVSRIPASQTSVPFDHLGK
For assay [18], the target named is Histone-arginine methyltransferase CARM1 (Homo sapiens, UniProt Q86X55). As to the kind of experiment: Affinity On-target Cellular interaction: (Western Blot (dimethylation of BAF155, BAF155me2a/BAF155, in HEK293T cells)) EUB0000255b CARM1. Details: mode of action Negative control for TP-064, recommended concentration 1 uM. The format is cell-based, HEK-293T. On the technique in general: In western blotting, separated proteins are transferred to a membrane and probed.
Chain of Histone-arginine methyltransferase CARM1 (Q86X55 whole entry): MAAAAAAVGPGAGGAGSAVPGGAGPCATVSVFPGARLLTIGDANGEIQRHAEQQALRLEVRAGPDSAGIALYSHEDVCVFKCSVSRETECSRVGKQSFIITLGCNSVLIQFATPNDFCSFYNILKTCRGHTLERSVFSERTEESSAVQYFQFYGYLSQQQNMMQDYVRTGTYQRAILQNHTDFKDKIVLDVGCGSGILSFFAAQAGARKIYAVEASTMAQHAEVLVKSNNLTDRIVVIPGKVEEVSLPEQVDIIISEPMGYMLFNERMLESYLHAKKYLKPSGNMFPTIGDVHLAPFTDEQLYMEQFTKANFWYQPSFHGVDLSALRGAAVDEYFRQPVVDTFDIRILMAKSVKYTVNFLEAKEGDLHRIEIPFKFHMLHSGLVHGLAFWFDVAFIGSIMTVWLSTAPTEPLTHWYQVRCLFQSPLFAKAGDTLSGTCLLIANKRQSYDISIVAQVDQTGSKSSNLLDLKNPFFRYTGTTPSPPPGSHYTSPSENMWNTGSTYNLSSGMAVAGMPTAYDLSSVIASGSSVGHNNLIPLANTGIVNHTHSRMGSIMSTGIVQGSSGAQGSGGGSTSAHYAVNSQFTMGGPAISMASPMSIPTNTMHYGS

Assay [19] addresses T3, Inhibitor of nuclear factor kappa-B kinase subunit beta (Homo sapiens, UniProt O14920). As to the kind of experiment: Affinity On-target Cellular interaction: (NanoBRET assay (HEK293T cells)) EUB0001576a IKBKB. The format is cell-based, HEK-293T. The arrangement: mode of action Negative control for BI 605906, recommended concentration 1 uM.
For assay [20], the target named is Receptor tyrosine-protein kinase erbB-2 (Homo sapiens, UniProt P04626). Description: Affinity On-target Cellular interaction: (Western Blot (EGF-induced autophosphorylation of the chimera EGFR extracellular domain and erbB2 intracellular domain in NIH 3T3 cells)) EUB0000595a ERBB2. The format is cell-based. Details: mode of action Inhibitor, recommended concentration 1 uM. The following applies: nih3t3.

Assay [21] deals with Calcium/calmodulin-dependent protein kinase type 1D (Homo sapiens, UniProt Q8IU85). As to the kind of experiment: Affinity On-target Cellular interaction: (NanoBRET assay (in HEK293T cells)) EUB0000878a CAMK1D. The format is cell-based, HEK-293T. Details: mode of action Inhibitor, recommended concentration 100 nM.
For assay [22], the target named is RAC-beta serine/threonine-protein kinase (Homo sapiens, UniProt P31751). As to the kind of experiment: Affinity On-target Cellular interaction: (NanoBRET assay (HEK293T cells)) EUB0001563a AKT2. Details: mode of action Negative control for Borussertib, recommended concentration 1 uM. The following applies: hek-293t. The format is cell-based.
The target of assay [23] is RAC-alpha serine/threonine-protein kinase (Homo sapiens, UniProt P31749). As to the kind of experiment: Affinity On-target Cellular interaction: (NanoBRET assay (HEK293T cells)) EUB0001563a AKT1. The format is cell-based. Details: mode of action Negative control for Borussertib, recommended concentration 1 uM. The note with it: hek-293t.
The target in assay [24] is T3, Inhibitor of nuclear factor kappa-B kinase subunit beta. As to the kind of experiment: Affinity On-target Cellular interaction: (Cellular assay (inhibition of phospho-IKBKB in HeLa cells)) EUB0001492b IKBKB. The format is cell-based. The arrangement: mode of action Inhibitor, recommended concentration 1 uM.
Assay [25] concerns the target Histone-lysine N-methyltransferase NSD3 (Homo sapiens, UniProt Q9BZ95). Description: Affinity On-target Cellular interaction: (NanoBRET assay (Nluc-NSD3-PWWP1 fusion protein in U2OS cells)) EUB0000270b NSD3. Details: mode of action Negative control for BI-9321, recommended concentration 1 uM. The format is cell-based.
Assay [26] addresses Casein kinase I isoform alpha (Homo sapiens, UniProt P48729). As to the kind of experiment: Affinity On-target Cellular interaction: (NanoBRET asssay (HEK293T cells)) EUB0001205a CSNK1A1. The format is cell-based, HEK-293T. Details: mode of action Inhibitor, recommended concentration 1 uM.
The target of assay [27] is T2, Casein kinase I isoform epsilon. Description: Affinity On-target Cellular interaction: (NanoBRET asssay (HEK293T cells)) EUB0001205a CSNK1E. The format is cell-based, HEK-293T. The arrangement: mode of action Inhibitor, recommended concentration 1 uM.
For assay [28], the target named is T1, Casein kinase I isoform delta. Description: Affinity On-target Cellular interaction: (NanoBRET asssay (HEK293T cells)) EUB0001205a CSNK1D. The arrangement: mode of action Inhibitor, recommended concentration 1 uM. The format is cell-based, HEK-293T.

Some results are limits rather than exact numbers.

Data on 17 molecules can be found in ChEMBL document CHEMBL5445981, “Affinity On-target Cellular Literature for EUbOPEN Chemogenomic Library” (2024).

The term IC50 denotes the midpoint of a concentration-inhibition curve. Broadly, the Ki is the equilibrium dissociation constant of an inhibitor or competing ligand from its target. High values mean lower affinity, low ones higher affinity. As usually defined, the EC50 is the concentration at which the effect is half-maximal. High values mean a less potent agent, low ones a more potent agent.

T3 sequence (O14920 whole entry, the tested form may be a part): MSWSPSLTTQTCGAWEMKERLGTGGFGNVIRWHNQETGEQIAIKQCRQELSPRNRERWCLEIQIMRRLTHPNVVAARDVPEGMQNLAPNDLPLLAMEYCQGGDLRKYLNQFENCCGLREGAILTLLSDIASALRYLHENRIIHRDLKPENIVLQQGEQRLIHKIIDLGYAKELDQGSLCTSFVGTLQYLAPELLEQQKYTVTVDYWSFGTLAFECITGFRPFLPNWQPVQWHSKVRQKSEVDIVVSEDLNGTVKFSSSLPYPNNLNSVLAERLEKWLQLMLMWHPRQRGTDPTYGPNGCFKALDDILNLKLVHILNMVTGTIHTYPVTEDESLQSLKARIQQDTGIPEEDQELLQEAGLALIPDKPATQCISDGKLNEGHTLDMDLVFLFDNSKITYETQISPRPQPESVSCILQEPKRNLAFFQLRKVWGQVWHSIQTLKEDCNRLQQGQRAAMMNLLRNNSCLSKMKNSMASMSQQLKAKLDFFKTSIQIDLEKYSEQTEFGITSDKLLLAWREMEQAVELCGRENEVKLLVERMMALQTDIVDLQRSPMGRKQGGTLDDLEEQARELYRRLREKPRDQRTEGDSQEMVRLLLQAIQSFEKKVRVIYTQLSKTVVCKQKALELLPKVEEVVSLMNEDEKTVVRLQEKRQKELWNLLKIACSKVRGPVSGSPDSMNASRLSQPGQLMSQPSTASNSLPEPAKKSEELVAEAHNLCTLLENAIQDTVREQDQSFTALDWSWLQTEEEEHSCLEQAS
T1 sequence (P48730 whole entry, canonical isoform): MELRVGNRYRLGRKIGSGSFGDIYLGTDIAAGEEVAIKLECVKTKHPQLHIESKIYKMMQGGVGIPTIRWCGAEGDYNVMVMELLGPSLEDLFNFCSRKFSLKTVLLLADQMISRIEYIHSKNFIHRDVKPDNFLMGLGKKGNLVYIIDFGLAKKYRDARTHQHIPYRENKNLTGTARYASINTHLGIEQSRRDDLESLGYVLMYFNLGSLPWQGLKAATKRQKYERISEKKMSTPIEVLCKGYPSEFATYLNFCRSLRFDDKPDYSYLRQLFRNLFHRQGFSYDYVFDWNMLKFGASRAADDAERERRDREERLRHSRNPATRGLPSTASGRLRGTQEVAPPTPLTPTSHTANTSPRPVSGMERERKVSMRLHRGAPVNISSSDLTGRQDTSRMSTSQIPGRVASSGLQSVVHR
Chain of Cyclin-G-associated kinase (O14976 whole entry): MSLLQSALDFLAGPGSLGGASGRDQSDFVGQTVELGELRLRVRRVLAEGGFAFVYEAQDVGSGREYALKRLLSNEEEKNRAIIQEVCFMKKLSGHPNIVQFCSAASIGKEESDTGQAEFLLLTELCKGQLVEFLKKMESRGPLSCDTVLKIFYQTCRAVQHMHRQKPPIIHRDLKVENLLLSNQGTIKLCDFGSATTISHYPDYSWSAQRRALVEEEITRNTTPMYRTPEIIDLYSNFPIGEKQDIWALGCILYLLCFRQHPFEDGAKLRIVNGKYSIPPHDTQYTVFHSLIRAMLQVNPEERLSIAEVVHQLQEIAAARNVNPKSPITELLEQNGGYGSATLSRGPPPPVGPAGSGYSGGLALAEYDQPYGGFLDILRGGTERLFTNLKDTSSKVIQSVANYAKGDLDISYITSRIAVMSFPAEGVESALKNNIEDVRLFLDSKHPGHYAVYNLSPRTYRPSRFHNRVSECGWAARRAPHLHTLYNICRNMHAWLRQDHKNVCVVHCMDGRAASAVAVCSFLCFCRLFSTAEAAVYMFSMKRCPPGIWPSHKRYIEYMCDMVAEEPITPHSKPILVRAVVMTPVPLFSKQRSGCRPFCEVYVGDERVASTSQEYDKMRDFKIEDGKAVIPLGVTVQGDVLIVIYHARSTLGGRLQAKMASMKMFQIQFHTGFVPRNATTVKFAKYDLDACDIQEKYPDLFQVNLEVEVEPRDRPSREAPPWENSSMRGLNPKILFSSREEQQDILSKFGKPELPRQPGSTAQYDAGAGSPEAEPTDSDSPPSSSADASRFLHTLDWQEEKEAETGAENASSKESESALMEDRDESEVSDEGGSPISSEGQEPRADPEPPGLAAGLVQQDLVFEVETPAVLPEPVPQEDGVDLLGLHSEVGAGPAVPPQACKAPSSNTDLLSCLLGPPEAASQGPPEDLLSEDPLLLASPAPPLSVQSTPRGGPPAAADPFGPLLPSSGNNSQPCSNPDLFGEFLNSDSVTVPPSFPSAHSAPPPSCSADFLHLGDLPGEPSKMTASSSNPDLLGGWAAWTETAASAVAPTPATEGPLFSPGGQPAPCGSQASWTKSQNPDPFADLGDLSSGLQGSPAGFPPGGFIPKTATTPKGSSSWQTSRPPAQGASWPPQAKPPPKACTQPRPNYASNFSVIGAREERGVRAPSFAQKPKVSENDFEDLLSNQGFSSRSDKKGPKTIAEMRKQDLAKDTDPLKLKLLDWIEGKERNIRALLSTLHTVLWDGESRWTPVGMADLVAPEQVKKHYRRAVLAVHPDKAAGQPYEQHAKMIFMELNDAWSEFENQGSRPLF
Chain of SRSF protein kinase 1 (Q96SB4 whole entry, canonical isoform): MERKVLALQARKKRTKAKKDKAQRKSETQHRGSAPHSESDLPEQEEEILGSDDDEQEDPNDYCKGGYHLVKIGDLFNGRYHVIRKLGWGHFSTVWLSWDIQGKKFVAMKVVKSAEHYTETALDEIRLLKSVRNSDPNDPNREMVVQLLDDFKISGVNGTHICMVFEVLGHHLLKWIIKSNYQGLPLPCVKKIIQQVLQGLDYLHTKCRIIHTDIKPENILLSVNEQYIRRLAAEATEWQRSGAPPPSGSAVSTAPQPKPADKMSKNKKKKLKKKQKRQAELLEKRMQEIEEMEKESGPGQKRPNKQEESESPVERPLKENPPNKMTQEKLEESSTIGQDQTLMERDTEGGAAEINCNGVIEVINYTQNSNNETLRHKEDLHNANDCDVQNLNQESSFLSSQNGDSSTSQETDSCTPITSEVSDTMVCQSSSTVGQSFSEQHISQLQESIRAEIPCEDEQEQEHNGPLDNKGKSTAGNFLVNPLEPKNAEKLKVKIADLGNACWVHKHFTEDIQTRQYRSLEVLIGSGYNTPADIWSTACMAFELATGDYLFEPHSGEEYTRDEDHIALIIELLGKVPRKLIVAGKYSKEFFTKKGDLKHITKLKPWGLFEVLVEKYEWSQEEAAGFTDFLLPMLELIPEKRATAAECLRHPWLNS

In the case of `COc1cc(Nc2nc(C)cc(-c3cnn4nc(OC)ccc34)n2)cc(C(F)(F)F)c1`, the IC50 in assay [1] and in assay [2] was above 10 µM each time.

The molecule `COc1cc(N(C)c2ccnc3ccc(C(F)(F)F)cc23)cc(OC)c1OC` had an IC50 in assay [3] above 5 µM.

For the molecule `C=CC(=O)Nc1ccc(C(=O)Nc2n[nH]c3c2CN(C(=O)N[C@H](CN(C)C)c2ccccc2)C3(C)C)cc1`, in assay [4], the IC50 came out at 0.0625 µM.

In the case of `CN(C)c1ncc2cc(-c3ccc(-c4ncccc4F)cc3Cl)c(=O)n(C[C@H]3OC[C@H](N)CO3)c2n1`, the IC50 in assay [5], in assay [6] and in assay [7] was 14 µM throughout.

Regarding `CN1CCN(C(=O)c2ccc3cc2OCCOCCNc2ccn4ncc-3c4n2)CC1`, the IC50 in assay [8] is above 45 µM.

As for `Cn1cc(-c2ccc3occ(-c4cccc(-c5ccncc5)c4)c3n2)cn1`, the Ki is 0.023 µM in assay [9], 1.7 µM in assay [10] and 6.58 µM in assay [11].

Consider `CN(C)CCCOc1ccc(-c2cc(NCCCn3cccn3)nc(S(C)(=O)=O)n2)cc1`, for which the results for the EC50 in assay [12] and in [13] were 0.289 µM and 0.228 µM, respectively.

Take `CN(c1ncccc1CNc1ccnc(-c2cc3cc(Cl)ccc3[nH]2)n1)S(C)(=O)=O`: the IC50 in assay [14] and in assay [15] was above 50 µM throughout.

Turning to `CCc1ccc(-c2ncn(CC3(F)CCN(C)CC3)c2-c2ccnc3[nH]ccc23)nc1`, the IC50 in assay [16] and in [17] was above 50 µM each time.

For `COCCN1CCC(c2cc(CN(C)C(=O)c3cccc(Oc4ccccc4)c3)ccn2)CC1`, the IC50 in assay [18] is above 10 µM.

In [19], `CN(C)C(=O)c1sc2nc(N3CCC(S(C)(=O)=O)CC3)cc(C(F)(F)F)c2c1N` [BI-5026] had an IC50 above 20 µM.

For `COCC(=O)NC/C=C/c1ccc2ncnc(Nc3ccc(Oc4ccc(C)nc4)c(C)c3)c2c1` [CP-724714], in assay [20], inhibition was half-maximal at 0.032 µM (IC50).

With `CC(C)c1cc(Nc2nc(N3CCC[C@H](N)C3)ncc2C(N)=O)cc(C(C)C)n1`, the IC50 in assay [21] was 0.029 µM.

Regarding `C=CC(=O)Nc1ccc2[nH]c(=O)n(C3CCN(Cc4ccc(-c5ccc6c(c5)NC(=O)CO6)cc4)CC3)c2c1` [RL2578], the IC50 came out at 8.3 µM in assay [22] and 1.9 µM in assay [23].

As to `CCC(F)(F)c1cc(N2CCC(S(C)(=O)=O)CC2)nc2sc(C(N)=O)c(N)c12` [BI-605906], the EC50 in [24] came out at 0.9 µM.

In turn, `Cc1cc(CN)cc(C)c1-c1ncn(C)c1-c1cncn1C` showed an IC50 in assay [25] above 10 µM.

`CN1CCC(F)(Cn2cnc(-c3ccc(F)cn3)c2-c2ccnc3[nH]ccc23)CC1`: the IC50 came to 3.5 µM in assay [26], 0.22 µM in assay [27] and 0.047 µM in [28].
